Data taken from US7960590B2, “Method for producing ethyleneamines from untreated AAN” (BASF SE, priority 2007, dated 2011).

Test: Solubility of IDAN in THF and in AAN

Work on N#CCNCC#N [IDAN, iminodiacetonitrile] yielded a dissolved concentration (in AAN at 40° C.) of ~52%, a dissolved concentration (in AAN, room temperature, up to) of ~35% and a solubility (in THF at room temperature) of ~10%.
